For assay [1], the system named is E. coli mixed WT/h24 culture total growth, OD600, 24 h. Briefly: growth of wild-type and h24-humanized E. coli strains – h24 mutant RFP vs wild-type GFP, cherry-pick, dose response (AID 977628).
Assay [2] relates to E. coli WT GFP strain growth, fluorescence, 24 h. The description is as above.

Results filed as inconclusive are left out. The source made the active and inactive calls.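 Rule for the calls: active = compound lowering the normal-ribosome reporter at least twice as much as the humanized-ribosome reporter, growth loss under a set limit; inconclusive = no clear call, values can overlap the other calls; inactive = the rest.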

Experimental findings from PubChem BioAssay AID977628 (Broad Institute, 2014) are described below.

As usually defined, the AC50 is the concentration giving half of the maximal activity seen.

Consider `Cc1cc(NC(=O)CSc2nccn2-c2cccc(C)c2C)no1`, for which the AC50 was > 100 µM in assay [1] and > 100 µM (inactive) in assay [2].

`COc1ccc(OC)c(-c2csc(NC(=O)C3COc4ccccc4O3)n2)c1` (configuration not stated): the AC50 was > 100 µM in assay [1] and > 100 µM (inactive) in assay [2].

With `Cc1onc(-c2ccccc2)c1-c1nnc(-c2ccccc2C(F)(F)F)o1`, the AC50 is > 100 µM in assay [1] and > 100 µM (inactive) in assay [2].

On to `CC1(C(=O)NS(=O)(=O)c2cccc(Cl)c2)CCN1C(=O)C1(c2ccc(Cl)cc2)CCC1` (configuration not stated), for which the concentration at half-maximal activity (AC50) is > 100 µM in assay [1] and > 100 µM (inactive) in assay [2].

Regarding `CCCN(CC(=O)Nc1ccccc1C)C(=O)c1cccc(S(=O)(=O)N2CCc3ccccc3C2)c1`, the AC50 in assay [1] is 51.9 µM; in assay [2] it was > 100 µM (inactive).

Take `COc1ccc(N(C)S(=O)(=O)c2cccc(C(=O)NC3CCCCC3C)c2)cc1` (configuration not stated): the values for the AC50 in assay [1] and in assay [2] were 47.7 µM and > 100 µM (inactive), respectively.

With `CCc1ccc(NC(=O)COC(=O)CCCC2=NS(=O)(=O)c3ccccc3N2)cc1`, the AC50 is > 100 µM in assay [1] and > 100 µM (inactive) in assay [2].

On to `O=C(CCCn1c(=S)[nH]c2ccsc2c1=O)Nc1ccc2c(c1)OCCO2`, for which the AC50 in assay [1] is 46.7 µM; in assay [2], > 100 µM (inactive).

As to `COc1ccc(C)cc1NC(=O)c1nn(C)cc1Br`, the results for the AC50 in assay [1] and in assay [2] were > 100 µM and > 100 µM (inactive), respectively.

On to `CC(C)Oc1cccc(C(=O)C2CCCN(Cc3ccc4nonc4c3)C2)c1` (configuration not stated), for which the concentration at half-maximal activity (AC50) in assay [1] is 36.8 µM; in assay [2] it was > 100 µM (inactive).

Regarding `Cc1nc([N+](=O)[O-])c(Br)n1CC(=O)c1ccc(F)cc1`, the values for the AC50 in assay [1] and in assay [2] were > 100 µM and > 100 µM (inactive), respectively.

For the compound `O=S(=O)(Nc1ccc(-c2cnco2)cc1)c1ccccc1`, the AC50 in assay [1] is > 100 µM; in assay [2] it was > 100 µM (inactive).

`Cc1ccc(NC(=O)CN(C)S(=O)(=O)c2cccc3cccnc23)cc1F`: the AC50 in assay [1] is > 100 µM; in assay [2], > 100 µM (inactive).

Take `Cc1ccc2nc(N(CCN(C)C)C(=O)C3CCN(S(=O)(=O)c4cccs4)CC3)sc2c1`: the half-maximal activity concentration (AC50) in assay [1] was > 100 µM; in assay [2], > 100 µM (inactive).

With `CC(CCc1ccccc1)NC(=O)CNC(=O)COc1ccccc1` (configuration not stated), the AC50 in assay [1] is > 100 µM; in assay [2], > 100 µM (inactive).

For the compound `CCCN(CC1CC1)C(=O)CSc1ncnc2sccc12`, the AC50 was > 100 µM in assay [1] and > 100 µM (inactive) in assay [2].

Take `O=C(Nc1cccc(Cl)c1)N1C[C@@H]2[C@H](c3ccccc31)[C@@H](CO)N2CC1CCCCC1`: the AC50 in assay [1] is 41.9 µM; in assay [2], > 100 µM (inactive).

Take `Cc1ccccc1S(=O)(=O)N1C[C@H]2CON(C)[C@H]2C[C@H]1c1cccc(-c2ccc(C#N)cc2)c1`: the AC50 was > 100 µM in assay [1] and > 100 µM (inactive) in assay [2].

Regarding `O=C(CSCc1c(Cl)cccc1Cl)Nc1cccnc1`, the AC50 in assay [1] was > 100 µM; in assay [2], > 100 µM (inactive).

For `Cc1cc(Cl)n2ncc(-c3ccccc3)c2n1`, the AC50 in assay [1] was > 100 µM; in assay [2] it was > 100 µM (inactive).

Consider `O=C(Cn1cc(COc2c(F)c(F)cc(F)c2F)nn1)c1ccc(O)cc1`, for which the AC50 in assay [1] is > 100 µM; in assay [2], > 100 µM (inactive).

As for `COc1cccc(OCCNS(=O)(=O)c2ccccc2[N+](=O)[O-])c1`, the figures for the AC50 in assay [1] and in assay [2] were > 100 µM and > 100 µM (inactive), respectively.

For the compound `CCOc1cccc2sc(N(CCCN(C)C)C(=O)c3ccc(S(=O)(=O)N4CCCCCC4)cc3)nc12`, the AC50 in assay [1] was > 100 µM; in assay [2], > 100 µM (inactive).

In the case of `CC(C)(C)c1cc(-c2n[nH]c(=S)n2-c2ccc(Cl)cc2)n[nH]1`, the AC50 is > 100 µM in assay [1] and > 100 µM (inactive) in assay [2].

With `C=CCn1c(-c2sc(-c3ccccc3)nc2C)n[nH]c1=S`, the AC50 in assay [1] was > 100 µM; in assay [2], > 100 µM (inactive).

Regarding `CCOC(=O)C(CC)Sc1cc(C)nc2ccc(OC)cc12` (configuration not stated), the AC50 in assay [1] was > 100 µM; in assay [2], > 100 µM (inactive).

Consider `CCOc1ccccc1/C=C/c1cc(C(=O)O)c2ccccc2n1`, for which the figures for the AC50 in assay [1] and in assay [2] were 37.6 µM and > 100 µM (inactive), respectively.

Turning to `COc1ccc(CC(=O)NCc2csc(-c3cccs3)n2)cc1OC`, the AC50 was > 100 µM in assay [1] and > 100 µM (inactive) in assay [2].

Turning to `COc1ccc(NC(=O)CCS(=O)(=O)c2ccccc2Cl)cc1S(=O)(=O)Nc1ccc(Cl)cc1`, the AC50 was > 100 µM in assay [1] and > 100 µM (inactive) in assay [2].

As to `CCN(CC)S(=O)(=O)c1ccc(O)c(C(=O)OCC(=O)NC23CC4CC(CC(C4)C2)C3)c1`, the AC50 in assay [1] is > 100 µM; in assay [2], > 100 µM (inactive).

Regarding `C[C@@H]1CN([C@@H](C)CO)C(=O)c2cccc(NC(=O)Nc3ccccc3)c2O[C@@H]1CN(C)S(=O)(=O)c1ccc(Cl)cc1`, the AC50 was 49.6 µM in assay [1] and > 100 µM (inactive) in assay [2].

Turning to `COc1ccc(OCC(=O)N2c3ccccc3CC2C)c([N+](=O)[O-])c1` (configuration not stated), the AC50 was > 100 µM in assay [1] and > 100 µM (inactive) in assay [2].

With `CC(C)(C)C1CCC(OCC(O)CN2CCN(c3ccccn3)CC2)CC1` (configuration not stated), the values for the AC50 in assay [1] and in assay [2] were 41 µM and > 100 µM (inactive), respectively.

For the compound `CCSc1nc2ccccc2c(=O)n1Cc1ccc(F)cc1`, the concentration at half-maximal activity (AC50) in assay [1] was 45.7 µM; in assay [2] it was > 100 µM (inactive).

For the compound `Cc1ccc(NC(=O)CCCSc2ccccc2)cc1S(=O)(=O)N1CCOCC1`, the AC50 in assay [1] is > 100 µM; in assay [2] it was > 100 µM (inactive).

`COc1ccc(C(=O)Nc2ccc(Nc3ccccc3)cc2)cc1[N+](=O)[O-]`: the AC50 in assay [1] is > 100 µM; in assay [2] it was > 100 µM (inactive).

As to `Cc1cc(C)n(CC(O)COc2ccc3ccccc3c2)n1` (configuration not stated), the half-maximal activity concentration (AC50) was > 100 µM in assay [1] and > 100 µM (inactive) in assay [2].

Consider `COC(=O)C(Cc1csc2ccc(Cl)cc12)NC(=O)c1ccc(Cl)cc1` (configuration not stated), for which the AC50 in assay [1] was 31 µM; in assay [2], > 100 µM (inactive).

Turning to `CCN(CC(=O)Nc1cccc(C#N)c1)CC(=O)Nc1cccc(OC)c1`, the AC50 is > 100 µM in assay [1] and > 100 µM (inactive) in assay [2].

Turning to `Brc1cc2c(cc1Br)OCCOCCOCCO2`, the half-maximal activity concentration (AC50) in assay [1] is > 100 µM; in assay [2], > 100 µM (inactive).

As to `COc1ccc(CNC(=O)c2cc3c(s2)CN(Cc2ccccc2)C3)cc1`, the AC50 in assay [1] is > 100 µM; in assay [2], > 100 µM (inactive).

Consider `CCOc1cccc2sc(NC(=O)CC)nc12`, for which the AC50 in assay [1] was > 100 µM; in assay [2], > 100 µM (inactive).

Turning to `O=C(COn1nnc2ccc(C(F)(F)F)cc21)Nc1c(Cl)cccc1Cl`, the AC50 is > 100 µM in assay [1] and > 100 µM (inactive) in assay [2].

Consider `CN(Cc1ccccc1)C(=O)c1[nH]cnc1C(=O)NCc1ccccc1`, for which the AC50 in assay [1] is > 100 µM; in assay [2], > 100 µM (inactive).

Regarding `Clc1cccc(OCc2nc(-c3ccncc3)n[nH]2)c1`, the AC50 in assay [1] is > 100 µM; in assay [2] it was > 100 µM (inactive).

Regarding `Cc1ccc(Oc2ccc(S(=O)(=O)N3CCOCC3)cc2C(N)=O)cc1C`, the AC50 in assay [1] was > 100 µM; in assay [2] it was > 100 µM (inactive).
